# Experimental data as given in a melting point compilation (Tetko et al.; mined from patent text by program, amines drawn as free bases though some values may be those of a salt).
row,SMILES,melting point [°C]
1,CC(C)c1nc(C(C)C)c(C(O)c2ccccc2)c(-c2ccc(F)cc2)c1CO (stereo not drawn),202 to 204
2,OCCC12CC(c3ccccc31)c1ccccc12,99 to 100
3,O=C(O)COc1ccc(C(=O)c2ccc(Cl)c(Cl)c2)c(Cl)c1Cl,165 to 167
4,CSc1nc(NCCC(C)C)c2[nH]nc(C)c2n1,90 to 95
5,COc1ccc(CN2CC=C(c3cc4ccccc4s3)CC2)cc1,158 to 160
6,CC(C)(C#N)ON1C(C)(C)CC(OC(=O)c2ccccc2)CC1(C)C,128 to 129
7,CN(C)CCNC(=O)N1CCN(c2ccc(Cl)c(Cl)c2)CC1,80 to 83
8,CCCCc1nc2ccccn2c(=O)c1-c1ccc(NC[C@H]2CCCO2)cc1,155 to 170
9,Cc1nc(Cl)cc(C2(c3ccc(Cl)cc3)CCC2)n1,96 to 98
10,CN1CCN(Cc2ccc(C(=O)Nc3cccc(Nc4ncc(C#N)c(-c5cccs5)n4)c3)cc2)CC1,208 to 209
11,Cc1ccc(S(=O)(=O)N(c2ccc([N+](=O)[O-])cc2Cl)C(C)C)cc1,154 to 157
12,COc1ccc2c(c1)c(Cc1nc(-c3ccc(Br)cc3)cs1)c(C)n2Cc1ccc(Br)cc1,178 to 179
13,NS(=O)(=O)CCCCCCl,62
14,CCN(CC)C(=O)C(=O)Nc1cc(C)c(S(=O)(=O)C[N+](=O)[O-])c(C)c1,128 to 129
15,O=c1c2c(Cl)cc(Cl)cc2n(Cc2ccccc2)c(=O)n1Cc1cccc(I)c1,155 to 157
16,CC1(C)C=C(N2CCCC2=O)c2cc([N+](=O)[O-])ccc2O1,135 to 137
17,CS(=O)c1ccc(-c2nn(Cc3ccccc3)c(=O)cc2-c2ccc(F)cc2)cc1 (stereo not drawn),198
18,FC(F)(F)c1ccc2c(Nc3ccncc3)noc2c1,249 to 250
19,CC(NC(=O)OCc1ccccc1)C(=O)N1C(C(=O)O)CC2CCCCC21 (stereo not drawn),58.6
20,C=CCc1cc(N2CCN(c3ccncc3)CC2)ccc1OCCCC(=O)OCC,53 to 55
21,CC1(C)C(c2ccccc2)=Nc2ccc(C3=NNC(=O)CC3)cc21,200 to 201
22,COC(=O)c1cc(NC=O)c2cc(Cc3ccc(F)cc3)cnc2c1O,217 to 219
23,O=C(O)c1ccc(-n2cnnc2S)cc1,> 300
24,C[C@H]1CN(c2ccc([N+](=O)[O-])cc2)[C@@H](C)CN1 (relative stereo),93 to 94
25,COc1cc2c(cc1C#Cc1ccc(C)cc1)C(C)(C)CCC2(C)C,127

row,SMILES,melting point [°C]
1,CSc1ccc(O)nn1,119
2,Cc1cn(C(C(=O)N(C)C)C(C)C)nc1-c1ccccc1 (stereo not drawn),66.5 to 68.5
3,CC(C)(S)CNCc1ccc(O)cc1,85 to 87
4,CC(C=Cc1ccccc1)NC(=O)c1ccccc1 (racemic),135
5,COc1ccc(C(=O)c2cccc(Cc3ccc(=O)[nH]n3)c2Cl)cc1,192 to 193
6,NC(=O)C1=CC=CNC=C1,167 to 171
7,C[C@H]1NC(Cc2ccc(Br)c(Oc3cc(C#N)cc(C(F)F)c3)c2F)=NNC1=O,184 to 186
8,CC(=O)N1CCc2c(Br)ccc([N+](=O)[O-])c2C1,159 to 161
9,CCCCc1oc2ccccc2c1-c1ncc(-c2ccc3cc(OCc4ccc(C(=O)OC)cc4C(=O)OC)ccc3c2)o1,195 to 197
10,CC(C)(C)OC(=O)N[C@H]1C(=O)N[C@H]1CO (relative stereo),128 to 131
11,CCN(CC)CCC1(C#N)c2ccccc2COc2ccccc21 (stereo not drawn),87 to 90
12,CSc1ccc(C)c2onc(OCCNC(=O)OC(C)(C)C)c12,85 to 86
13,COCCOc1cc2ncnc(NC3=CC(=O)C(N4CCCCC4)=CC3=O)c2cc1OC,197 to 200
14,CCC(=O)c1cc2c(cc1O)CCCC2,57 to 58
15,CON(C)C(=O)Nc1ccc(CN2OCCC(C)(C)C2=O)c(Cl)c1,116 to 118
16,Cc1ccc(-c2cccnc2C#N)cc1,136 to 138
17,CCOC(=O)C1=C(COCCNc2nc(N)n[nH]2)NC(C)=C(C(=O)OC)C1c1cccc(C(F)(F)F)c1Cl (stereo not drawn),144 to 145
18,CSc1ccccc1C1C(=O)c2ccccc2C1=O,191 to 193
19,COc1ccc(-n2cnnc2C(C)O)cc1 (stereo not drawn),170
20,"CC1(C)OC(=O)C(c2ccc3sccc3c2)O1 (single isomer, unassigned; (-))",116 to 117
21,CN1CCC(c2c(O)cc(O)c3c(=O)cc(-c4ccccc4Cl)oc23)C1Cn1ccnc1 (stereo not drawn),249 to 250
22,Cc1sc(NS(=O)(=O)c2ccc(-c3ccccc3)cc2)nc1CC(=O)N1CCOCC1,204 to 206
23,CNC(=O)CCCCc1csc(NC(N)=NCC(F)(F)F)n1,122 to 126
24,Cc1cc2c(cc1C)C(=CC#N)OC2=O,165 to 181
25,Nc1nc(N)c(-c2cc(Cl)ccc2Cl)c(C(F)(F)F)n1,215 to 217

row,SMILES,melting point [°C]
1,O=Cc1cc(C#Cc2ccccc2)c(C=O)cc1C#Cc1ccccc1,179 to 181
2,CN1C(=O)C2CC(c3ccc([N+](=O)[O-])cc3)(C2)C1=O,185 to 188
3,CC(C)n1c(C=O)c(-c2ccc(F)cc2)c(-c2ccc(F)cc2)c1C(=O)Nc1cccc(C(=O)N(C)C)c1,133 to 135
4,Clc1ccc(Cn2cc(CCn3ccnc3)c3ccccc32)cc1,78 to 80
5,CS(=O)(=O)c1ccc(-c2cnn(Cc3cccnc3)c(=O)c2-c2ccc(F)cc2)cc1,160 to 161
6,CCCNC(=O)c1nc(C)ccc1C(=O)Nc1c(C#N)ccc(Cl)c1C,175 to 176
7,CC(C)CNc1c([N+](=O)[O-])c2nnnn2c2cnccc12,173 to 174
8,CCC(=O)N[C@H]1CC[C@H](CCN2CCC(c3cccc4c3CCO4)CC2)CC1,192
9,Cc1oc(C=Cc2ccc(Cl)cc2)nc1CO,129 to 130
10,COc1nc2ccc(Cl)cc2nc1Sc1nnc(C)s1,186 to 188
11,CS(=O)(=O)Nc1ccc2c(c1)S(=O)(=O)NC(C1CCCCC1)N2 (stereo not drawn),255 to 258
12,O=C(O)c1ccc(SC(=O)c2ccc(O)c(C34CC5CC(CC(C5)C3)C4)c2)cc1,272 to 274
13,COc1ccc(CN(C(=O)C(F)(F)F)c2cc(F)cc(C#N)c2)cc1,102 to 103
14,Nc1cc(N2CCCCC2)c(F)cc1[N+](=O)[O-],112 to 113
15,O=C(NCc1ccccn1)c1ccc(C2=NOC(c3cc(Cl)cc(Cl)c3)(C(F)(F)F)C2)cc1C(F)(F)F (stereo not drawn),69 to 70
16,C=CC(=O)NCc1cc(C)c(OCC2CO2)c(C)c1 (stereo not drawn),90 to 92
17,COc1cc(CC(=O)O)ccc1NC(=O)Nc1ccccc1C(F)(F)F,218 to 220
18,NCC1COc2ccc3[nH]c(=O)oc3c2O1 (stereo not drawn),> 250
19,COc1ccc(Cc2cc3cc(C#N)ccc3o2)cc1,78 to 80
20,Fc1ccc(-c2ncnc(C(F)F)c2Cl)c(F)c1,69 to 71
21,O=C(O)Cc1c(Sc2ccccc2)c2cc(F)ccc2n1Cc1ccc(Cl)cc1,168
22,COc1cc(OC)c(-c2nc3ncccc3[nH]2)s1,93 to 96
23,O=S(=O)(N=CN(CCO)CCO)c1cc(Br)cc(Br)c1,118
